Patent publication US20230107216A1, “PANTETHEINE DERIVATIVES AND USES THEREOF” (Comet Therapeutics, Inc., priority 2018, published 2023)
Where two headings read alike, the source gives them in different places.

How the values were obtained:
[1] = system: Propionic Acidemia (PA) primary fibroblasts Tsi 6337; test: Mitochondrial respiration, XFe96 Extracellular Flux Analyzer (OCR/ECAR), PA fibroblasts Tsi 6337; assay type: cell-based; details: Homo sapiens, Fibroblast
Experimental: The effect of the compounds of the present disclosure on mitochondrial respiration was measured with a XFe96 Extracellular Flux Analyzer (Seahorse Bioscience, Agilent Technologies) and Oxygen consumption Rate (OCR) and Extracellular acidification rate (ECAR) determined.
Cell culture and treatments. Primary adherent fibroblasts were cultured in minimum essential medium (MEM) (Gibco, 25030081) supplemented with 2 mM L-Glutamine (Gibco, 25030081), 15% fetal bovine serum (FBS) (Gibco, 26400044) and 1% penicillin/streptomycin (Gibco, 5140122) at 37° C. and 5% CO2. Cells were collected for either passaging or experiment at ˜70-80% confluence. Cells were obtained by trypsinization and seeded at 20000 cells/well in cell culture microplates (Seahorse Bioscience, 101085-004) and allowed to adhere for 16 hours in culture media.
By profiling different primary cells and/or optimizing their culture media or environmental components one can select cell lines and/or conditions that are appropriate for the biological or disease model. In the present example, 24 hours prior to OCR and ECAR profiling, media was changed to Dulbecco's Modified Eagle Medium (DMEM, Agilent Seahorse 103575-100) with the appropriate supplements for the different primary cells (10 mM glucose, 2 mM L-glutamine, 1 mM pyruvate, 10% FBS; 1 mM glucose, 2 mM L-glutamine, 1 mM pyruvate, 10% FBS; 10 mM glucose, 10% FBS; 5 mM glucose 10% FBS; 1 mM glucose 10% FBS). Cells used in this example were: Propionic Acidemia (PA) (GM00371, GM03590 Coriell Institute for Medical Research, Tsi 6337, Tsi 4626, Tsi 3618 Trans-Hit Bio), Methylmalonic Acidemia (MMA) (GM01673, Coriell Institute for Medical Research, Tsi 5224 Trans-Hit Bio), Branched chain ketoacid dehydrogenase kinase (BCKDK) (GM00612, GM00649 Coriell Institute for Medical Research), Subnormal activation of pyruvate dehydrogenase complex (PDH) (GM01503 Coriell Institute for Medical Research), Very long-chain acyl-CoA dehydrogenase (VLCAD) (GM17475), Leigh Syndrome (LS) (GM03672, GM13411 Coriell Institute for Medical Research), Pyruvate Carboxylase Deficiency (PC) (GM00444 Coriell Institute for Medical Research), Glutaric Acidemia-I (GA) (GM10653), Friedreich's Ataxia (FXN) (GM04078 Coriell Institute for Medical Research, Huntington's disease (HD) (GM21756 Coriell Institute for Medical Research), Ornithine Transcarbamylase Deficiency (OTC) (GM12756 Coriell Institute for Medical Research), Kearns-Sayre Syndrome (KSS) (GM06225 Coriell Institute for Medical Research).
One hour before the assay, the cells were washed with freshly prepared unbuffered serum free-Seahorse XF Assay medium (Seahorse Bioscience, North America, USA, 103575-100) with the same supplements as for the previous 24 hour incubation.
After baseline measurements of OCR, cells were challenged with compounds of the present disclosure at different concentrations (10 to 50 μM) or vehicle (DMSO, 0.1%) and a post-compound baseline was recorded. OCR was measured after sequentially adding to each well 1 μg/ml oligomycin (inhibitor of ATP synthase Sigma-Aldrich, 753531), then maximal OCR was determined with carbonyl cyanide 4-(trifluoromethoxy) phenylhydrazone (FCCP, Sigma-Aldrich, C2920), (uncoupler of oxidative phosphorylation) and 0.5 μM of rotenone (Sigma-Aldrich, R8875) plus antimycin A (Sigma-Aldrich, A8674) (inhibitors of mitochondrial complex I and III) for determination of rotenone-antimycin insensitive respiration together with Hoechst for nuclear staining in situ when normalized to cell counts. After the analysis and nuclear staining, the XFp microplate was transferred to the Cytation 5, and the nuclear images were captured, the individual nuclei were identified and counted by BioTek Gen5 software. Data were expressed as pmol of O2 per minute and normalized by nuclear staining and baselined to pre-compound addition.
Assay conditions were as stated below.
Assay specifics on assay conditions are indicated below when readouts were normalized to cell counts. […]

[2] = system: monocyte-derived M1 macrophages; test: M1 differentiation assay (macrophage TNFα, IL6, IL10 ELISA, FACS); assay type: cell-based, human
Experimental: Monocytes were isolated by positive isolation with CD14+ microbeads (Miltenyi, 130-050-201). Monocytes were 99% viable and were 96% purity as analyzed by FACS and CD14+ (BD, 563561). 100,000 monocytes along with compounds at the dose of 10 and 50 μM were allowed to differentiate to macrophages with 10 ng/ml GMCSF (R&D, 15-GM-050/CF) in RPMI complete media (Invitrogen, 22400089) with 15% FBS (Hyclone SV30087.03) and 1% Penicillin-Streptomycin (Gibco, 15140-122). On day 2 and 4 half the media was refreshed with fresh GM-CSF and compounds at 10 and 50 μM dose. On day 6 the macrophages were matured with GMCSF, IFNγ (R&D 285-IF-100/CF) and LPS (Sigma, L6143) in the presence of 10 μM and 50 μM of compounds. After 24h, supernatant was collected for the measurement of TNFα (DKW, 1117202) IL6 (DKW, 1110602), IL10 (DKW, 1110003) by ELISA. Macrophages were detached gently on ice with EDTA (Invitrogen, 15575-038) and analyzed by FACS (BD LSR Fortessa, 853492). Cells were stained for live/dead dye, surface and intracellular markers with fixation/permeabilization solution (BD, 554714) and ALIVE/DEAD™ Fixable Near-IR Dead Cell Stain Kit (BD, L34976), mouse anti human CD86 APC (BD, 555660), mouse anti-human CD163 PE (BD, 556018), mouse anti-human CD68 FITC (BD, 562117) or isotype controls anti-mouse IgG1 κ PE (BD, 559320) and anti-mouse IgG1 κ APC (BD, Anti mouse IgG1 κ APC (BD, 55571). Mature M1 macrophages were defined as CD86+CD68+CD163− and increase in TNFα, IL6, and decrease in IL-10.

[3] = system: Methylmalonic Acidemia (MMA) primary fibroblasts Tsi 5224; test: Mitochondrial respiration, XFe96 Extracellular Flux Analyzer (OCR/ECAR), MMA fibroblasts Tsi 5224; assay type: cell-based; details: Homo sapiens, Fibroblast;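 for Increase in Maximal Respiratory Capacity AUC: relative to vehicle DMSO control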
Summary of the method: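 Primary fibroblasts (20000 cells/well) were held 24 h in supplemented DMEM before Seahorse OCR/ECAR profiling. Compounds at 10 to 50 μM or 0.1% DMSO were injected after baseline, then oligomycin 1 μg/ml, FCCP, and rotenone/antimycin A 0.5 μM. Values were normalized to Hoechst nuclear counts, baselined to pre-compound, and expressed relative to vehicle.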

[4] = system: primary fibroblasts (healthy controls and PA, MMA, BCKDK, PDH, VLCAD, LS, PC, GA, VLCFA, KSS, FXN, HD); test: Measurement of ROS (H2DCFDA) in primary fibroblasts; assay type: cell-based, human; details: Homo sapiens, procedure Example 812
Experimental: Primary adherent fibroblasts were cultured in minimum essential medium (MEM) (Gibco, 25030081) supplemented with 2 mM L-Glutamine (Gibco, 25030081), 15% fetal bovine serum (FBS) (Gibco, 26400044) and 1% penicillin/streptomycin (Gibco, 5140122) at 37° C. and 5% CO2. Cells were collected for either passaging or experiment at ˜70-80% confluence. Cells were obtained by trypsinization and seeded in cell culture microplates either white plate (Thermo Fisher Scientific, 152028) for luminescent measurement or black plate (Thermo Fisher Scientific, 165305) for fluorescent based read out for different assays listed below. Cells were obtained by trypsinization and […] were seeded and allowed to adhere for 16-18 hours to have confluency around 70-80% in the cell well with culture media. After 24 hours prior to measurements (37° C., 5% CO2) media was changed to Dulbecco's Modified Eagle Medium (DMEM, Agilent Seahorse cat #103575-100) with the appropriate supplements as stated below.
Primary fibroblasts assayed were Healthy controls (GM00041, GM05659, GM23974 Coriell Institute for Medical Research), Propionic Acidemia (PA) (GM00371, GM03590 Coriell Institute for Medical Research, Tsi 6337 Trans-Hit Bio), Methylmalonic Acidemia (MMA) (GM01673, Coriell Institute for Medical Research, Tsi 5224, Tsi 4290 Trans-Hit Bio), Branched chain ketoacid dehydrogenase kinase (BCKDK) (GM00612, GM00649 Coriell Institute for Medical Research), Subnormal activation of pyruvate dehydrogenase complex (PDH) (GM01503 Coriell Institute for Medical Research), Very long-chain acyl-CoA dehydrogenase (VLCAD) (GM17475), Leigh Syndrome (LS) (GM03672, GM13411 Coriell Institute for Medical Research), Pyruvate Carboxylase Deficiency (PC) (GM00444 Coriell Institute for Medical Research), Glutaric Acidemia-I (GA), Impaired VLCFA oxidation (VLCFA) (GM13262), Kearns-Sayre Syndrome (KSS) (GM06225 Coriell Institute for Medical Research), Friedreich's Ataxia (FXN), Huntington's disease (HD) (GM21756 Coriell Institute for Medical Research). Next, cells were treated with compounds (10 μM) and ROS H2DCFDA (22 μM) dye for 2 hours in PA, MMA lines and for 24h for the other fibroblast lines. Kinetic read was started immediately with a i3x plate reader (492/527 nm) for 60 minutes.
A total dead cell count was performed as described in Example 817 and only alive cells were used for analysis.

[5] = PA Tsi 6337, assay condition D (1 mM glucose, 10% FBS), read-out: Increase in Maximal Respiratory Capacity AUC
[6] = PA Tsi 6337, assay condition A (10 mM glucose, 2 mM L-glutamine, 1 mM pyruvate, 10% FBS), read-out: Increase in Maximal Respiratory Capacity AUC
[7] = MMA Tsi 5224, assay condition A (10 mM glucose, 2 mM L-glutamine, 1 mM pyruvate, 10% FBS), read-out: Increase in Maximal Respiratory Capacity AUC
[8] = FXN GM04078, Assay Condition C, read-out: Decreased ROS by at least 10%
[9] = FXN GM04078, Assay Condition C, read-out: Decreased ROS by at least 30%

COC(=O)CC(O)(CC(=O)OC)C(=O)SCCNC(=O)CCNC(=O)[C@H](O)C(C)(C)CO [Compound 418]
activation at 10 µM [1, 5]: ≥ 10% | % decrease in Live Macrophage Cells ([2]; 50 uM): ≥20% | activation at 10 µM ([2]; Homo sapiens, Macrophage, 10 uM, read-out: % Increase in IL-10 Secretion): ≥ 30% | inhibition at 10 µM ([2]; Homo sapiens, Macrophage, 10 uM, read-out: % decrease in Macrophage IL-6 Secretion): ≥ 30% | inhibition at 10 µM ([2]; Homo sapiens, Macrophage, 10 uM, read-out: % decrease in Macrophage TNFα Secretion): ≥ 30%

CC(C(=O)SCCNC(=O)CCNC(=O)[C@H](O)C(C)(C)CO)[C@H](C)O (stereo partly drawn) [Compound 1248, (2R)-2,4-dihydroxy-N-{2-[(2-{[(3S)-3-hydroxy-2-methylbutanoyl]sulfanyl}ethyl)carbamoyl]ethyl}-3,3-dimethylbutanamide]
activation at 10 µM [1, 6]: ≥ 10% | activation at 10 µM [3, 7]: ≥ 10%

COC(=O)CCC(=O)SCCNC(=O)CCNC(=O)[C@H](O)C(C)(C)COC(=O)CN [Compound 1228]
activation at 10 µM [1, 6]: ≥ 10% | activation at 10 µM [1, 5]: ≥ 10% | activation at 10 µM [3, 7]: ≥ 10%

COC(=O)C(=O)SCCNC(=O)CCNC(=O)[C@H](O)C(C)(C)COP(=O)(O)O [Compound 60, Methyl (R)-2-((2-(3-(2-hydroxy-3,3-dimethyl-4-(phosphonooxy)butanamido)propanamido)ethyl)thio)-2-oxoacetate]
activation at 10 µM [1, 5]: ≥ 10% | activation at 10 µM ([3]; MMA Tsi 5224, assay condition D (1 mM glucose, 10% FBS), read-out: Increase in Maximal Respiratory Capacity AUC): ≥ 10% | inhibition at 10 µM ([4]; Fibroblast, KSS GM06225, Assay Condition C, read-out: Decreased ROS by at least 10%): ≥ 10% | inhibition at 10 µM ([4]; Fibroblast, KSS GM06225, Assay Condition C, read-out: Decreased ROS by at least 30%): ≥ 30%

CC(C)(COC(=O)CCC(=O)O)[C@@H](OC(=O)CCC(=O)O)C(=O)NCCC(=O)NCCSC(=O)CCC(=O)O [Compound 1233]
activation at 10 µM [1, 6]: ≥ 10% | activation at 10 µM ([3]; MMA Tsi 5224, assay condition C (10 mM glucose, 10% FBS), read-out: Increase in Spare Capacity AUC): ≥ 50% | inhibition at 10 µM ([4]; Fibroblast, BCKD GM00612, Assay Condition A, read-out: Decreased ROS by at least 10%): ≥ 10% | inhibition at 10 µM ([4]; Fibroblast, VLCFA GM13262, Assay Condition C, read-out: Decreased ROS by at least 30%): ≥ 30% | inhibition at 10 µM [4, 8]: ≥ 10% | inhibition at 10 µM [4, 9]: ≥ 30%

CC[C@H](O)CC(=O)SCCNC(=O)CCNC(=O)[C@H](O)C(C)(C)CO [Compound 1249, (2R)-2,4-dihydroxy-N-{2-[(2-{[(3S)-3-hydroxypentanoyl]sulfanyl}ethyl)carbamoyl]ethyl}-3,3-dimethylbutanamide]
activation at 10 µM [1, 6]: ≥ 10% | inhibition at 10 µM ([4]; Fibroblast, VLCAD GM17475, Assay Condition C, read-out: Decreased ROS by at least 10%): ≥ 10% | inhibition at 10 µM ([4]; Fibroblast, VLCAD GM17475, Assay Condition C, read-out: Decreased ROS by at least 30%): ≥ 30% | inhibition at 10 µM [4, 8]: ≥ 10% | inhibition at 10 µM [4, 9]: ≥ 30%

CC(C)(CO)[C@@H](O)C(=O)NCCC(=O)NCCSC(=O)[C@@H](N)CC(=O)O [Compound 390]
activation at 10 µM ([1]; PA Tsi 6337, assay condition D (1 mM glucose, 10% FBS), read-out: Increase in Spare Capacity AUC): ≥ 10% | activation at 10 µM [3, 7]: ≥ 10%
